Experimental findings from ChEMBL document CHEMBL4425112, “1,2-Benzisothiazole Derivatives Bearing 4-, 5-, or 6-Alkyl/arylcarboxamide Moieties Inhibit Carbonic Anhydrase Isoform IX (CAIX) and Cell Proliferation under Hypoxic Conditions” (J Med Chem, 2016) are described below.

The target of one data set is Carbonic anhydrase 1 (Homo sapiens, UniProt P00915).
The next data set addresses Carbonic anhydrase 2 (Homo sapiens, UniProt P00918).
In another data set the target is Carbonic anhydrase 9 (Homo sapiens, UniProt Q16790). Put plainly: Inhibition of human carbonic anhydrase 9 catalytic site preincubated for 15 mins by stopped flow CO2 hydration assay.
A short description of data set [1]: Toxicity in nude mouse xenografted with human HT-29 cells assessed as weight loss at 25 to 50 mg/kg, ip administered qd measured after 16 days. Particulars: in vivo, 384 h. The class given is organism-based.
The test system of data set [2] is HT-29. Put plainly: Antiproliferative activity against human HT-29 cells assessed as reduction in cell viability after 72 hrs by cell counter method. Particulars: HT-29, 72 h. It is filed as cell-based.
The nature of data set [3]: Toxicity in nude mouse xenografted with human HT-29 cells assessed as clinical toxicity at 25 to 50 mg/kg, ip administered qd measured after 16 days. As to conditions: in vivo, 384 h. The class given is organism-based. (In general: A xenograft is tissue or cells of one species grown in another, often human tumour cells in immunodeficient mice.)
Another data set deals with Carbonic anhydrase 7 (Homo sapiens, UniProt P43166). Kind of data set: Inhibition of human carbonic anhydrase 7 preincubated for 15 mins by stopped flow CO2 hydration assay.
For data set [4], the system named is HT-29. Put plainly: Synergistic cytotoxicity in human HT-29 cells assessed as dose reduction index ratio in presence of CoCl2-induced hypoxic conditions measured at 80 % cell growth inhibition after 72 hrs in presence of compound-5c by cell counter method. It is filed as functional.
Data set [5] relates to HT-29. Kind of data set: Synergistic cytotoxicity in human HT-29 cells assessed as dose reduction index ratio in presence of CoCl2-induced hypoxic conditions measured at 70 % cell growth inhibition after 72 hrs in presence of compound-5c by cell counter method. It is filed as functional.
Data set [6] has as its system HT-29. Kind of data set: Synergistic cytotoxicity in human HT-29 cells assessed as dose reduction index ratio in presence of CoCl2-induced hypoxic conditions measured at 90 % cell growth inhibition after 72 hrs in presence of compound-5c by cell counter method. It is filed as functional.

Carbonic anhydrase 1, sequence (P00915 whole entry): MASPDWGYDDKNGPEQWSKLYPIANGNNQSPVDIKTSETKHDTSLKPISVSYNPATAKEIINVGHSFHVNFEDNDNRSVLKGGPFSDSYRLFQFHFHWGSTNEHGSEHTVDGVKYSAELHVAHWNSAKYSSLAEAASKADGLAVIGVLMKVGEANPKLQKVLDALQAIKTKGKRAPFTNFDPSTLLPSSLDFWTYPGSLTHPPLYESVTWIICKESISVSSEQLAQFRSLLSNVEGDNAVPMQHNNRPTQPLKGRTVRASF
Carbonic anhydrase 7, sequence (P43166 whole entry): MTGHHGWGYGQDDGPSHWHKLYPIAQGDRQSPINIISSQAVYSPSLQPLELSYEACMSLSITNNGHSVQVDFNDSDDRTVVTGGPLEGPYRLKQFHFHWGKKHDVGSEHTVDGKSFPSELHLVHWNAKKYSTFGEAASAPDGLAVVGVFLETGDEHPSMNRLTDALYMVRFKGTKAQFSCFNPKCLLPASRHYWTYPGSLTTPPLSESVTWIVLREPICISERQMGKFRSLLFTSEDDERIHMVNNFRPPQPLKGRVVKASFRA
Description for Carbonic anhydrase 1: Inhibition of human carbonic anhydrase 1 preincubated for 15 mins by stopped flow CO2 hydration assay
Description for Carbonic anhydrase 2: Inhibition of human carbonic anhydrase 2 preincubated for 15 mins by stopped flow CO2 hydration assay

Regarding `O=C(Nc1cccc2c1C(=O)NS2(=O)=O)c1ccc(-c2ccccc2)cc1`, the Ki – broadly, the dissociation constant of the complex between target and ligand, obtained from inhibition or displacement – is over 50000 nM at Carbonic anhydrase 1, 910 nM at Carbonic anhydrase 2 and 1190 nM at Carbonic anhydrase 9.

Consider `COc1ccc(C(=O)Nc2ccc3c(c2)C(=O)NS3(=O)=O)cc1`, for which the Ki at Carbonic anhydrase 2 came out at 790 nM; on Carbonic anhydrase 9 it was 74 nM.

Take `O=C(Nc1cccc2c1C(=O)NS2(=O)=O)c1ccccc1`: the Ki at Carbonic anhydrase 1 is over 50000 nM; at Carbonic anhydrase 2, 184 nM; at Carbonic anhydrase 9, 223 nM.

`COc1ccc(C(=O)Nc2ccc3c(c2)S(=O)(=O)NC3=O)cc1`: the Ki is over 50000 nM on Carbonic anhydrase 1, 6940 nM at Carbonic anhydrase 2 and 205 nM at Carbonic anhydrase 9.

Regarding `O=C(Nc1ccc2c(c1)C(=O)NS2(=O)=O)c1cccc(Br)c1`, the results for the Ki at Carbonic anhydrase 2 and on Carbonic anhydrase 9 were 3930 nM and 31.5 nM, respectively.

As to `O=C(Nc1ccc2c(c1)S(=O)(=O)NC2=O)c1ccc(F)cc1`, the inhibitory constant (Ki) is over 50000 nM on Carbonic anhydrase 1, 908 nM at Carbonic anhydrase 2 and 543 nM at Carbonic anhydrase 9.

As to `O=C(Nc1ccc2c(c1)C(=O)NS2(=O)=O)c1ccc(-c2ccccc2)cc1`, the values for the Ki on Carbonic anhydrase 1, at Carbonic anhydrase 2 and on Carbonic anhydrase 9 were over 50000 nM, 82.9 nM and 231 nM, respectively.

Consider `O=C(Nc1ccc2c(c1)S(=O)(=O)NC2=O)c1cccc(Cl)c1`, for which the inhibition constant (Ki) on Carbonic anhydrase 1 was over 50000 nM; at Carbonic anhydrase 2, 6020 nM; on Carbonic anhydrase 9 it was 233 nM.

For the molecule `Cc1ccc(C(=O)Nc2ccc3c(c2)S(=O)(=O)NC3=O)cc1`, the values for the Ki on Carbonic anhydrase 1, at Carbonic anhydrase 2 and at Carbonic anhydrase 9 were over 50000 nM, 411 nM and 539 nM, respectively.

Take `O=C(Nc1ccc2c(c1)C(=O)NS2(=O)=O)c1cccc(Cl)c1`: the Activity result in data set [1] and in data set [3] was “Non-Toxic” each time. Further, the half-maximal inhibitory concentration (IC50) (as a rule, the point on the concentration scale where inhibition reaches its midpoint) with HT-29 [2] is over 100000 nM. The Ki on Carbonic anhydrase 2 worked out at 589 nM; at Carbonic anhydrase 9, 67.9 nM.

As for `O=C(Nc1ccc2c(c1)C(=O)NS2(=O)=O)c1ccc(F)cc1`, the values for the inhibition constant Ki on Carbonic anhydrase 2 and at Carbonic anhydrase 9 were 6880 nM and 27.2 nM, respectively.

`O=C(Nc1cccc2c1C(=O)NS2(=O)=O)c1cccc(Br)c1`: the Ki was over 50000 nM at Carbonic anhydrase 7, 593 nM at Carbonic anhydrase 2 and 31.2 nM at Carbonic anhydrase 9. Further, the IC50 in the data set with HT-29 [2] was over 100000 nM.

Turning to `O=C(Nc1ccc2c(c1)S(=O)(=O)NC2=O)c1ccccc1`, the Ki is over 50000 nM at Carbonic anhydrase 1, 7270 nM on Carbonic anhydrase 2 and 220 nM on Carbonic anhydrase 9.

As to `O=C(Nc1ccc2c(c1)S(=O)(=O)NC2=O)c1ccc(Cl)cc1`, the Ki on Carbonic anhydrase 1 was over 50000 nM; at Carbonic anhydrase 2, 4670 nM; at Carbonic anhydrase 9 it was 1920 nM.

Consider `O=C(Nc1ccc2c(c1)C(=O)NS2(=O)=O)c1ccc(Cl)cc1`, for which the results for the Ki at Carbonic anhydrase 1, on Carbonic anhydrase 2 and on Carbonic anhydrase 9 were over 50000 nM, 2300 nM and 86.2 nM, respectively.

On to `O=C(Nc1ccc2c(c1)S(=O)(=O)NC2=O)c1cccc(Br)c1`, for which the Ki at Carbonic anhydrase 1 is over 50000 nM; at Carbonic anhydrase 2, 837 nM; at Carbonic anhydrase 9, 665 nM.

`CC(=O)Nc1ccc2c(c1)C(=O)NS2(=O)=O`: the Ki on Carbonic anhydrase 7 was over 50000 nM; at Carbonic anhydrase 2, 1480 nM; on Carbonic anhydrase 9 it was 30.4 nM. Moreover, in the data set with HT-29 [2], the half-inhibitory concentration (IC50) is over 100000 nM.

Turning to `CCc1c2c(nc3ccc(O)cc13)-c1cc3c(c(=O)n1C2)COC(=O)[C@]3(O)CC` [7-ETHYL-10-HYDROXYCAMPTOTHECIN], the results for the Ratio in the data set with HT-29 [4], with HT-29 [5] and in the data set with HT-29 [6] were 2.039, 0.866 and 7.395, respectively.

With `O=c1[nH]cc(F)c(=O)[nH]1` [FLUOROURACIL], the figures for the Ratio in the data set with HT-29 [4], with HT-29 [5] and in the data set with HT-29 [6] were 15.884, 5.017 and 89.952, respectively.
